Data taken from ChEMBL document CHEMBL3885881, “DrugMatrix”.

Species on record: Rattus norvegicus
Assay: DrugMatrix - Regimen: Daily Repeat
Type: toxicity, organism-based, Sprague-Dawley
Parameters: regimen Daily Repeat, gender Male, age 6-8 weeks
Settings: in vivo, po, route oral GAVAGE, vehicle 100 % WATER; for ABSOLUTE BASOPHIL / ABSOLUTE EOSINOPHIL / ABSOLUTE LYMPHOCYTE / ABSOLUTE MONOCYTE / ABSOLUTE SEGMENTED NEUTROPHIL / BASOPHIL / EOSINOPHIL / ERYTHROCYTE COUNT / HEMATOCRIT / HEMOGLOBIN / LEUKOCYTE COUNT / LYMPHOCYTE / MEAN CORPUSCULAR HEMOGLOBIN / MEAN CORPUSCULAR HEMOGLOBIN CONCENTRATION / MEAN CORPUSCULAR VOLUME / MONOCYTE / NEUTROPHIL / NUCLEATED RED BLOOD CELLS / PLATELET COUNT: tissue Blood; for ALANINE AMINOTRANSFERASE / ALBUMIN / ALKALINE PHOSPHATASE / ASPARTATE AMINOTRANSFERASE / BLOOD UREA NITROGEN / CARBON DIOXIDE / CHLORIDE / CHOLESTEROL / CREATINE PHOSPHOKINASE / CREATININE / GLUCOSE / LACTATE DEHYDROGENASE / LIPASE / PHOSPHORUS / POTASSIUM / SODIUM / TOTAL BILIRUBIN / TOTAL PROTEIN / URIC ACID: tissue Plasma
[1] = 0 mg/kg, 72 h, dose level Control, time 3 day
[2] = 0 mg/kg, 120 h, dose level Control, time 5 day
[3] = 30 mg/kg, 72 h, dose level Low, time 3 day

CC(C)NCC(O)c1ccc(NS(C)(=O)=O)cc1 (centres undefined) [SOTALOL]
ABSOLUTE BASOPHIL [1]: 0 CELLS/uL | ABSOLUTE EOSINOPHIL [1]: 102 CELLS/uL | ABSOLUTE LYMPHOCYTE [1]: 12758 CELLS/uL | ABSOLUTE MONOCYTE [1]: 197.17 CELLS/uL | ABSOLUTE SEGMENTED NEUTROPHIL [1]: 1259.5 CELLS/uL | BASOPHIL [1]: 0% | EOSINOPHIL [1]: 0.83% | ERYTHROCYTE COUNT [1]: 5.3 x10E6/uL | HEMATOCRIT [1]: 33.47% | HEMOGLOBIN [1]: 13.12 G/DL | LEUKOCYTE COUNT [1]: 14.32 x10E3/uL | LYMPHOCYTE [1]: 89.33% | MEAN CORPUSCULAR HEMOGLOBIN [1]: 24.8 pg | MEAN CORPUSCULAR HEMOGLOBIN CONCENTRATION [1]: 39.18 G/DL | MEAN CORPUSCULAR VOLUME [1]: 63.25 fL | MONOCYTE [1]: 1.33% | NEUTROPHIL [1]: 8.5% | NUCLEATED RED BLOOD CELLS [1]: 0 /100WBC | PLATELET COUNT [1]: 1313.17 x10E3/uL | ALANINE AMINOTRANSFERASE [1]: 52.67 u/L | ALBUMIN [1]: 4.05 G/DL | ALKALINE PHOSPHATASE [1]: 372 u/L | ASPARTATE AMINOTRANSFERASE [1]: 82.83 u/L | BLOOD UREA NITROGEN [1]: 15 mg/dL | CARBON DIOXIDE [1]: 25.67 mmol/L | CHLORIDE [1]: 102.17 MEQ/L | CHOLESTEROL [1]: 68.83 mg/dL | CREATINE PHOSPHOKINASE [1]: 285 u/L | CREATININE [1]: 0.18 mg/dL | GLUCOSE [1]: 149.17 mg/dL | LACTATE DEHYDROGENASE [1]: 263.83 u/L | LIPASE [1]: 10.17 u/L | PHOSPHORUS [1]: 12.58 mg/dL | POTASSIUM [1]: 6.58 MEQ/L | SODIUM [1]: 144.22 MEQ/L | TOTAL BILIRUBIN [1]: 0.22 mg/dL | TOTAL PROTEIN [1]: 5.83 G/DL | URIC ACID [1]: 1.58 mg/dL | ABSOLUTE BASOPHIL [2]: 0 CELLS/uL | ABSOLUTE EOSINOPHIL [2]: 24 CELLS/uL | ABSOLUTE LYMPHOCYTE [2]: 11134.17 CELLS/uL | ABSOLUTE MONOCYTE [2]: 56.33 CELLS/uL | ABSOLUTE SEGMENTED NEUTROPHIL [2]: 1235.5 CELLS/uL | BASOPHIL [2]: 0% | EOSINOPHIL [2]: 0.17% | ERYTHROCYTE COUNT [2]: 5.68 x10E6/uL | HEMATOCRIT [2]: 35.72% | HEMOGLOBIN [2]: 13.93 G/DL | LEUKOCYTE COUNT [2]: 12.45 x10E3/uL | LYMPHOCYTE [2]: 89.5% | MEAN CORPUSCULAR HEMOGLOBIN [2]: 24.63 pg | MEAN CORPUSCULAR HEMOGLOBIN CONCENTRATION [2]: 39.13 G/DL | MEAN CORPUSCULAR VOLUME [2]: 62.97 fL | MONOCYTE [2]: 0.5% | NEUTROPHIL [2]: 9.83% | NUCLEATED RED BLOOD CELLS [2]: 0 /100WBC | PLATELET COUNT [2]: 1204 x10E3/uL | ALANINE AMINOTRANSFERASE [2]: 59.5 u/L | ALBUMIN [2]: 4.38 G/DL | ALKALINE PHOSPHATASE [2]: 415.67 u/L | ASPARTATE AMINOTRANSFERASE [2]: 91.33 u/L | BLOOD UREA NITROGEN [2]: 17 mg/dL | CARBON DIOXIDE [2]: 26.33 mmol/L | CHLORIDE [2]: 104.17 MEQ/L | CHOLESTEROL [2]: 77 mg/dL | CREATINE PHOSPHOKINASE [2]: 249.67 u/L | CREATININE [2]: 0.21 mg/dL | GLUCOSE [2]: 148.33 mg/dL | LACTATE DEHYDROGENASE [2]: 168.5 u/L | LIPASE [2]: 10.17 u/L | PHOSPHORUS [2]: 12.92 mg/dL | POTASSIUM [2]: 7.09 MEQ/L | SODIUM [2]: 148.37 MEQ/L | TOTAL BILIRUBIN [2]: 0.23 mg/dL | TOTAL PROTEIN [2]: 6.3 G/DL | URIC ACID [2]: 1.77 mg/dL | ABSOLUTE BASOPHIL [3]: 0 CELLS/uL | ABSOLUTE EOSINOPHIL [3]: 90.67 CELLS/uL | ABSOLUTE LYMPHOCYTE [3]: 14675.33 CELLS/uL | ABSOLUTE MONOCYTE [3]: 254 CELLS/uL | ABSOLUTE SEGMENTED NEUTROPHIL [3]: 1113.33 CELLS/uL | BASOPHIL [3]: 0% | EOSINOPHIL [3]: 0.67% | ERYTHROCYTE COUNT [3]: 5.44 x10E6/uL | HEMATOCRIT [3]: 34.57% | HEMOGLOBIN [3]: 13.43 G/DL | LEUKOCYTE COUNT [3]: 16.13 x10E3/uL | LYMPHOCYTE [3]: 91% | MEAN CORPUSCULAR HEMOGLOBIN [3]: 24.7 pg | MEAN CORPUSCULAR HEMOGLOBIN CONCENTRATION [3]: 38.93 G/DL | MEAN CORPUSCULAR VOLUME [3]: 63.47 fL | MONOCYTE [3]: 1.67% | NEUTROPHIL [3]: 6.67% | NUCLEATED RED BLOOD CELLS [3]: 0.67 /100WBC | PLATELET COUNT [3]: 1241 x10E3/uL | ALANINE AMINOTRANSFERASE [3]: 52.67 u/L | ALBUMIN [3]: 4.13 G/DL | ALKALINE PHOSPHATASE [3]: 380.33 u/L | ASPARTATE AMINOTRANSFERASE [3]: 95.67 u/L | BLOOD UREA NITROGEN [3]: 15 mg/dL | CARBON DIOXIDE [3]: 25.67 mmol/L | CHLORIDE [3]: 102 MEQ/L | CHOLESTEROL [3]: 74 mg/dL | CREATINE PHOSPHOKINASE [3]: 490.33 u/L | CREATININE [3]: 0.16 mg/dL | GLUCOSE [3]: 152.33 mg/dL | LACTATE DEHYDROGENASE [3]: 497 u/L | LIPASE [3]: 10.33 u/L | PHOSPHORUS [3]: 13.97 mg/dL | POTASSIUM [3]: 6.87 MEQ/L | SODIUM [3]: 144.53 MEQ/L | TOTAL BILIRUBIN [3]: 0.23 mg/dL | TOTAL PROTEIN [3]: 5.8 G/DL | URIC ACID [3]: 2.13 mg/dL
